The text below walks through data of article PMC8022280 (ChemMedChem, 2018).

For assay [1], the target named is T1, Wip1 (Homo sapiens, UniProt O15297).
T1 sequence (O15297 1-605): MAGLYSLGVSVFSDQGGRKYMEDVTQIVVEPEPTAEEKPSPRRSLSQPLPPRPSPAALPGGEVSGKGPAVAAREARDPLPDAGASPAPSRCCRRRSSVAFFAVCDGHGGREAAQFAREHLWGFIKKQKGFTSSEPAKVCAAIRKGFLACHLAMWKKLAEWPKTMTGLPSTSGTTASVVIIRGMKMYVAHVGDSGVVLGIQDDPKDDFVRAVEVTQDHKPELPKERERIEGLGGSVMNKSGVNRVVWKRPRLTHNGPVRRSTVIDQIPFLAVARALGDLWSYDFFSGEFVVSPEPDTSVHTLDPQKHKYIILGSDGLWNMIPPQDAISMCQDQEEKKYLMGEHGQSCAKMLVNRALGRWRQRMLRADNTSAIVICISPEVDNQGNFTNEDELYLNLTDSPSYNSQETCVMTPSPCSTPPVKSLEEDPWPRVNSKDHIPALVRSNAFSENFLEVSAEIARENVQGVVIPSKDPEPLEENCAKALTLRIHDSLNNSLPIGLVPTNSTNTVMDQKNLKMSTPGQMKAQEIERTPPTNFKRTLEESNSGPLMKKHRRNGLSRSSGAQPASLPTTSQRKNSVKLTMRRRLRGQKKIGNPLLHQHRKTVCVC
Briefly: Quantitative ELISA of γH2AX levels in MCF7 cells. Particulars: no IR (Figure S2). Format: cell-based.

The target in assay [2] is T1, Wip1. The assay can be described thus: Inhibition of Wip1 phosphatase activity toward the ATM. The assay is classed as biochemical.

pIC50: −log10 of the molar value.

As for `COC(=O)[C@H](CCCCNC(=O)[C@H](CC1CCCCC1)NC(=O)c1cccs1)NC(=O)c1cccc(O)c1` [Compound 1, Methyl-N^6-((S)-3-cyclohexyl-2-(thiophene-2-carboxamido)propanoyl)-N^2-(3-hydroxybenzoyl)-L-lysinate], the “increase in γH2AX levels in the absence of exposure to IR” value on Wip1 [1] is given as “did not produce a detectable increase”. Moreover, the negative logarithm of the IC50 (pIC50) on Wip1 [2] is 6.04.

As to `Cc1ncc(Cl)cc1NCc1ccc(C(=O)N[C@@H](CC2CCCC2)C(=O)NC2CC2)s1` [GSK2830371, reference compound], the “increase in γH2AX levels in the absence of exposure to IR” value on Wip1 [1] is reported as “did not produce a detectable increase”.
